Activity calls are given as the source filed them. The rule behind the calls is not given here.
Assays:
HL-60 [1] = assay: Inhibition of nitrite production in Homo sapiens (human) HL60 cells at 5 to 15 uM after 12 hr by Griess assay; format: functional, cell-based
Vero = assay: Cytotoxicity against Chlorocebus aethiops (African green monkey) Vero cells assessed as growth inhibition after 48 hr by MTT assay; format: cell-based; conditions: Chlorocebus sabaeus
HL-60 [2] = assay: Cytotoxicity against Homo sapiens (human) HL60 cells assessed as growth inhibition after 48 hr by MTT assay; format: functional, cell-based; conditions: HL-60, 48 h
MCF7 = assay: Cytotoxicity against Homo sapiens (human) MCF7 cells assessed as growth inhibition after 48 hr by MTT assay; format: functional, cell-based; conditions: MCF7, 48 h
HSC-2 = assay: Cytotoxicity against Homo sapiens (human) HSC2 cells assessed as growth inhibition after 48 hr by MTT assay; format: functional, cell-based; conditions: HSC-2, 48 h
HCT-116 = assay: Cytotoxicity against Homo sapiens (human) HCT116 cells assessed as growth inhibition after 48 hr by MTT assay; format: functional, cell-based; conditions: HCT-116, 48 h
HL-60 [3] = assay: Cell cycle arrest in Homo sapiens (human) HL60 cells assessed as accumulation at G2/M phase at 15 uM after 9 hr by propidium iodide staining-based FACS flow cytometric analysis (reference value: 9 +/- 1.2%); format: functional
HL-60 [4] = assay: Cell cycle arrest in Homo sapiens (human) HL60 cells assessed as accumulation at sub-G1 phase at 15 uM after 3 hr by propidium iodide staining-based FACS flow cytometric analysis (reference value: 0.1%); format: functional
HL-60 [5] = assay: Cell cycle arrest in Homo sapiens (human) HL60 cells assessed as accumulation at S phase at 15 uM after 6 hr by propidium iodide staining-based FACS flow cytometric analysis (reference value: 56.8 +/- 2.4%); format: functional
HL-60 [6] = assay: Cell cycle arrest in Homo sapiens (human) HL60 cells assessed as accumulation at G2/M phase at 15 uM after 12 hr by propidium iodide staining-based FACS flow cytometric analysis (reference value: 8.2 +/- 0.4%)
HL-60 [7] = assay: Cell cycle arrest in Homo sapiens (human) HL60 cells assessed as accumulation at G0/G1 phase at 15 uM after 6 hr by propidium iodide staining-based FACS flow cytometric analysis (reference value: 36.2 +/- 2.4%); format: functional
HL-60 [8] = assay: Cell cycle arrest in Homo sapiens (human) HL60 cells assessed as accumulation at G0/G1 phase at 15 uM after 9 hr by propidium iodide staining-based FACS flow cytometric analysis (reference value: 36.2 +/- 2.4%); format: functional
HL-60 [9] = assay: Upregulation of caspase-3 expression in Homo sapiens (human) HL60 cells at 15 uM after 4 hr by RT-PCR analysis; format: functional, cell-based
HL-60 [10] = assay: Upregulation of bax expression in Homo sapiens (human) HL60 cells at 15 uM after 4 hr by RT-PCR analysis; format: functional, cell-based
HL-60 [11] = assay: Cell cycle arrest in Homo sapiens (human) HL60 cells assessed as accumulation at S phase at 15 uM after 3 hr by propidium iodide staining-based FACS flow cytometric analysis (reference value: 56.8 +/- 2.4%); format: functional
HL-60 [12] = assay: Inhibition of TNFalpha production in Homo sapiens (human) HL60 cells after 6 hr by ELISA; format: functional, cell-based
HL-60 [13] = assay: Cell cycle arrest in Homo sapiens (human) HL60 cells assessed as accumulation at sub-G1 phase at 15 uM after 6 hr by propidium iodide staining-based FACS flow cytometric analysis (reference value: 0.1%); format: functional
HL-60 [14] = assay: Cell cycle arrest in Homo sapiens (human) HL60 cells assessed as accumulation at G2/M phase at 15 uM after 3 hr by propidium iodide staining-based FACS flow cytometric analysis (reference value: 9 +/- 1.2%); format: functional
HL-60 [15] = assay: Induction of apoptosis in Homo sapiens (human) HL60 cells assessed as appearance of apoptotic bodies at 15 uM after 24 hr by hoechst 33258 staining-based fluorescence microscopic analysis relative to control; format: functional, cell-based
HL-60 [16] = assay: Cell cycle arrest in Homo sapiens (human) HL60 cells assessed as accumulation at G0/G1 phase at 15 uM after 3 hr by propidium iodide staining-based FACS flow cytometric analysis (reference value: 36.2 +/- 2.4%); format: functional
HL-60 [17] = assay: Induction of apoptosis in Homo sapiens (human) HL60 cells assessed as caspase 3 activation at 15 uM after 24 hr by colorimetric analysis; format: functional, cell-based
HL-60 [18] = assay: Downregulation of iNOS expression in Homo sapiens (human) HL60 cells after 12 hr by scanning densitometric analysis; format: functional, cell-based
HL-60 [19] = assay: Cell cycle arrest in Homo sapiens (human) HL60 cells assessed as accumulation at S phase at 15 uM after 9 hr by propidium iodide staining-based FACS flow cytometric analysis (reference value: 56.8 +/- 2.4%); format: functional
HL-60 [20] = assay: Cell cycle arrest in Homo sapiens (human) HL60 cells assessed as accumulation at sub-G1 phase at 15 uM after 9 hr by propidium iodide staining-based FACS flow cytometric analysis (reference value: 0.1%); format: functional
HL-60 [21] = assay: Downregulation of iNOS expression in Homo sapiens (human) HL60 cells at 15 uM after 4 hr by RT-PCR analysis relative to control; format: functional, cell-based
HL-60 [22] = assay: Cell cycle arrest in Homo sapiens (human) HL60 cells assessed as accumulation at S phase at 15 uM after 12 hr by propidium iodide staining-based FACS flow cytometric analysis (reference value: 56.8 +/- 2.4%); format: functional
HL-60 [23] = assay: Induction of apoptosis in Homo sapiens (human) HL60 cells assessed as DNA fragmentation at 15 uM after 24 hr by hoechst 33258 staining-based fluorescence microscopic analysis relative to control; format: functional, cell-based
HL-60 [24] = assay: Downregulation of NF-kappaB expression in Homo sapiens (human) HL60 cells at 15 uM after 4 hr by RT-PCR analysis; format: functional, cell-based
HL-60 [25] = assay: Cell cycle arrest in Homo sapiens (human) HL60 cells assessed as accumulation at sub-G1 phase at 15 uM after 12 hr by propidium iodide staining-based FACS flow cytometric analysis (reference value: 0.1%); format: functional
HL-60 [26] = assay: Downregulation of bcl-2 expression in Homo sapiens (human) HL60 cells at 15 uM after 4 hr by RT-PCR analysis; format: functional, cell-based
HL-60 [27] = assay: Inhibition of nitrite production in Homo sapiens (human) HL60 cells after 12 hr by Griess assay; format: functional, cell-based
HL-60 [28] = assay: Cell cycle arrest in Homo sapiens (human) HL60 cells assessed as accumulation at G2/M phase at 15 uM after 6 hr by propidium iodide staining-based FACS flow cytometric analysis (reference value: 9 +/- 1.2%); format: functional
HL-60 [29] = assay: Cell cycle arrest in Homo sapiens (human) HL60 cells assessed as accumulation at G0/G1 phase at 15 uM after 12 hr by propidium iodide staining-based FACS flow cytometric analysis (reference value: 36.2 +/- 2.4%); format: functional

SMILES	IC50 (Vero) [µM]	IC50 (HL-60 [2]) [µM]	IC50 (MCF7) [µM]	IC50 (HSC-2) [µM]	IC50 (HCT-116) [µM]	Activity (HL-60 [3]) [%]	Activity (HL-60 [4]) [%]	Activity (HL-60 [5]) [%]	Activity (HL-60 [6]) [%]	Activity (HL-60 [7]) [%]	Activity (HL-60 [8]) [%]	Activity (HL-60 [9])	Activity (HL-60 [10])	Activity (HL-60 [11]) [%]	inhibition (HL-60 [12])	Activity (HL-60 [13]) [%]	Activity (HL-60 [14]) [%]	Activity (HL-60 [15])	Activity (HL-60 [16]) [%]	Activity (HL-60 [17])	other results
CNC(=N)NCCC[C@H](N)C(=O)O	–	–	–	–	–	–	–	–	–	–	–	–	–	–	–	–	–	–	–	–	inhibition (HL-60 [1]): Active
C/C=C(/C)C(=O)O[C@@H]1CC(C)(C)C[C@H]2C3=CC[C@@H]4[C@@]5(C)CCC(=O)C(C)(C)[C@@H]5CC[C@@]4(C)[C@]3(C)CC[C@@]12C(=O)O [LANTADENE A]	> 50	19.3	25.8	50.7	13.4	–	–	–	–	–	–	–	–	–	–	–	–	–	–	–	–
CC(C)=CC(=O)O[C@@H]1CC(C)(C)C[C@@H]2C3=CC[C@@H]4[C@@]5(C)CCC(=O)C(C)(C)[C@@H]5CC[C@@]4(C)[C@]3(C)CC[C@]21C(=O)O [LANTADENE B]	> 50	19.1	81.4	43	13.2	–	–	–	–	–	–	–	–	–	–	–	–	–	–	–	–
C/C=C(/C)C(=O)O[C@@H]1CC(C)(C)C[C@H]2C3=CC[C@@H]4[C@@]5(C)CC[C@H](O)C(C)(C)[C@@H]5CC[C@@]4(C)[C@]3(C)CC[C@@]12C(=O)O [Reduced Lantadene A]	> 50	1.5	6	6.1	1.2	20.8	0.2	64.2	42	20.8	14	Active	Active	57	Dose-dependent effect	0.4	8.4	Active	34.4	Active	Activity (HL-60 [18]): Dose-dependent effect; Activity (HL-60 [19]): 63.6%; Activity (HL-60 [20]): 1.2%; Activity (HL-60 [21]): Active; Activity (HL-60 [22]): 44.8%; Activity (HL-60 [23]): Dose-dependent effect; Activity (HL-60 [24]): Active; Activity (HL-60 [25]): 3.2%; Activity (HL-60 [26]): Active; inhibition (HL-60 [27]): Dose-dependent effect; Activity (HL-60 [28]): 15.8%; Activity (HL-60 [29]): 15.4%
CC(C)=CC(=O)O[C@@H]1CC(C)(C)C[C@H]2C3=CC[C@@H]4[C@@]5(C)CC[C@H](O)C(C)(C)[C@@H]5CC[C@@]4(C)[C@]3(C)CC[C@@]12C(=O)O [Reduced Lantadene B]	> 50	2.1	5.2	6.4	1.8	19.9	0.3	62.1	40.8	18.2	12.6	Active	Active	55.1	Dose-dependent effect	0.5	7.4	Active	32.8	Active	Activity (HL-60 [18]): Dose-dependent effect; Activity (HL-60 [19]): 61.6%; Activity (HL-60 [21]): Active; Activity (HL-60 [22]): 42.1%; Activity (HL-60 [23]): Dose-dependent effect; Activity (HL-60 [24]): Active; Activity (HL-60 [25]): 3.4%; Activity (HL-60 [26]): Active; inhibition (HL-60 [27]): Dose-dependent effect; Activity (HL-60 [28]): 14.8%; Activity (HL-60 [29]): 13.9%

Source: ChEMBL document CHEMBL3045313, “Reduced Lantadenes A and B: semi-synthetic synthesis, selective cytotoxicity, apoptosis induction and inhibition of NO, TNF- production in HL-60 cells” (Med Chem Res, 2013)
